This experiment addresses T1, Serine/threonine-protein kinase Chk1 (Homo sapiens) (UniProt O14757).
T1 sequence (whole entry): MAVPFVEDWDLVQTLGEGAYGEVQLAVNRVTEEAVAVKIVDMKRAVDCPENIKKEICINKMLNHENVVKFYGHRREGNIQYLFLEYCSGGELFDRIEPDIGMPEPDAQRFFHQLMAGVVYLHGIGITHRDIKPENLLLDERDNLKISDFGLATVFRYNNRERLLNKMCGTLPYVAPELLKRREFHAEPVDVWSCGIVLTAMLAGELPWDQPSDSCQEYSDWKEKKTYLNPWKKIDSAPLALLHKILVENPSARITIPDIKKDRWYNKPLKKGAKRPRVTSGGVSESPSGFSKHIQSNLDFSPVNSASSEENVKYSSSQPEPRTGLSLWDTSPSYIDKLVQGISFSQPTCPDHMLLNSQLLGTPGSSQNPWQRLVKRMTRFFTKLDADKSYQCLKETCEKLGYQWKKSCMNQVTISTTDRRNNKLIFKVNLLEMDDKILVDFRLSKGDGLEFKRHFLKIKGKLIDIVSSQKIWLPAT
In words: Inhibition of CHK1 (unknown origin) at 1 uM by kinase profiling analysis relative to control.

This is an account of results in ChEMBL document CHEMBL6087451, “Design, Synthesis, and Biological Evaluation of 2-Arylaminopyrimidine Derivatives as Dual Cathepsin L and JAK Inhibitors for the Treatment of Acute Lung Injury” (J Med Chem, 2025).

SMILES strings stand for the structures.

Consider `Cl.Cn1cc(-c2ccnc(Nc3cccc(N)c3)n2)c2ccccc21`, for which the inhibition is 81.7%.

As usually defined, the inhibition is the share of the control response that was lost under treatment.
